The values that follow come from PMC11110727, “Exploiting thiol-functionalized benzosiloxaboroles for achieving diverse substitution patterns – synthesis, characterization and biological evaluation of promising antibacterial agents” (RSC Medicinal Chemistry, 2024).

≈ marks a conversion by molar mass, not a printed value. Where two headings read alike, the source gives them in different places.

Assay [1] relates to P. mirabilis ATCC 12453. The experiment in a line: Antibacterial activity: MIC/MBC, MIC with PAβN, disc-diffusion. Format: cell-based, Proteus mirabilis. The note with it: Proteus mirabilis, ATCC12453; P. mirabilis ATCC 12453; read-out: MIC. How it is done: (§1) Direct antimicrobial activity was determined against the following standard strains: (1) Gram-positive cocci: methicillin-sensitive Staphylococcus aureus ATCC 6538P (MSSA), methicillin-resistant S. aureus subsp. aureus ATCC 43300 (MRSA), S. epidermidis ATCC 12228, Enterococcus faecium ATCC 6057, E. faecalis ATCC 29212, Bacillus subtilis ATCC 6633; (2) Gram-negative bacteria from Enterobacteriales order: Klebsiella pneumoniae ATCC 13883, Escherichia coli ATCC 25922, Enterobacter cloacae DSM 6234, Proteus mirabilis ATCC 12453, Serratia marcescens ATCC 13880; (3) Gram-negative non-fermentative rods: Acinetobacter baumannii ATCC 19606, Pseudomonas aeruginosa ATCC 27853, Stenotrophomonas maltophilia ATCC 12714, S. maltophilia ATCC 13637, Burkholderia cepacia ATCC 25416, Bordetella bronchiseptica ATCC 4617; (4) yeasts: Candida albicans ATCC 90028, C. krusei ATCC 6258, C. parapsilosis ATCC 22019, C. tropicalis (Castellani) Berkhout ATCC 750, C. tropicalis IBA 171, C. guilliermondii IBA 155, and Saccharomyces cerevisiae ATCC 9763. Moreover, 5 clinical strains of methicillin-resistant S. aureus were also included: NMI 664 K, NMI 1576 K, NMI 1712 K, NMI 1991 K, and NMI 2541 K. All strains were stored at −80 °C. Prior to testing, each bacterial strain was subcultured twice on tryptic soy agar TSA (bioMerieux) medium and yeast strains on Sabouraud dextrose agar (bioMerieux) for 24–48 h at 30 °C to ensure viability. The antimicrobial activity was evaluated as previously described[26] by the disc-diffusion method and the MIC determination assays according to the EUCAST (ref. [71] and [72]) and CLSI (ref. [53] and [73]) recommendations. Assessment of bactericidal (MBC) and fungicidal (MFC) activities was performed according to the CLSI recommendations.[54,74] […] The new benzosiloxaboroles were dissolved in DMSO (Sigma).
(§2) Considering that the MDR efflux pumps often contribute to Gram-negative rod resistance, the MIC values of studied agents, with or without the pump inhibitor, PAβN (20 μg mL^−1) (Sigma), were determined.[75] The MIC was determined using Mueller–Hinton II broth medium (MHB) (Becton Dickinson) by the broth microdilution method, according to the CLSI guideliness.[53] To minimize the influence of PAβN on the destabilization of bacterial cell covers, the tests were conducted in the presence of 1 mM MgSO4 (Sigma).[76] At least a 4-fold reduction in the MIC value after the addition of PAβN was considered significant.[56,77]
Background: Agar diffusion results depend on both activity and mobility in agar.

Assay [2] deals with B. bronchiseptica ATCC 4617. The experiment in a line: Antibacterial activity: MIC/MBC, disc-diffusion. Format: cell-based, Bordetella bronchiseptica. The note with it: Bordetella bronchiseptica, ATCC4617; B. bronchiseptica ATCC 4617; read-out: MIC. On the procedure:
as §1, §2

For assay [3], the system named is B. cepacia ATCC 25416. Put plainly: Antibacterial activity: MIC/MBC, disc-diffusion. In kind it is cell-based, Burkholderia cepacia. To be noted: Burkholderia cepacia, ATCC25416; B. cepacia ATCC 25416; read-out: MIC. How it is done:
as §1, §2

In assay [4] the test system is S. maltophilia ATCC 12714. The experiment in a line: Antibacterial activity: MIC/MBC, MIC with PAβN, disc-diffusion. Format: cell-based, Stenotrophomonas maltophilia. To be noted: S. maltophilia ATCC 12714; for MIC: Stenotrophomonas maltophilia, ATCC12714, read-out: MIC. On the procedure: as §1, §2
The test system of assay [5] is S. maltophilia ATCC 13637. The description is as above. Format: cell-based, Stenotrophomonas maltophilia. The note with it: S. maltophilia ATCC 13637; for MIC: Stenotrophomonas maltophilia, ATCC13637, read-out: MIC. On the procedure:
as §1, §2

Assay [6] relates to A. baumannii ATCC 19606. The assay is described as above. The note with it: A. baumannii ATCC 19606; for MIC: Acinetobacter baumannii, ATCC19606, read-out: MIC. Format: cell-based, Acinetobacter baumannii. How it is done:
as §1, §2

Assay [7] deals with C. tropicalis IBA 171. Put plainly: Antifungal activity: MIC/MFC, disc-diffusion. Format: cell-based. To be noted: Candida tropicalis, IBA171; read-out: MIC. On the procedure:
(§3) Direct antimicrobial activity was determined against the following standard strains: (1) Gram-positive cocci: methicillin-sensitive Staphylococcus aureus ATCC 6538P (MSSA), methicillin-resistant S. aureus subsp. aureus ATCC 43300 (MRSA), S. epidermidis ATCC 12228, Enterococcus faecium ATCC 6057, E. faecalis ATCC 29212, Bacillus subtilis ATCC 6633; (2) Gram-negative bacteria from Enterobacteriales order: Klebsiella pneumoniae ATCC 13883, Escherichia coli ATCC 25922, Enterobacter cloacae DSM 6234, Proteus mirabilis ATCC 12453, Serratia marcescens ATCC 13880; (3) Gram-negative non-fermentative rods: Acinetobacter baumannii ATCC 19606, Pseudomonas aeruginosa ATCC 27853, Stenotrophomonas maltophilia ATCC 12714, S. maltophilia ATCC 13637, Burkholderia cepacia ATCC 25416, Bordetella bronchiseptica ATCC 4617; (4) yeasts: Candida albicans ATCC 90028, C. krusei ATCC 6258, C. parapsilosis ATCC 22019, C. tropicalis (Castellani) Berkhout ATCC 750, C. tropicalis IBA 171, C. guilliermondii IBA 155, and Saccharomyces cerevisiae ATCC 9763. Moreover, 5 clinical strains of methicillin-resistant S. aureus were also included: NMI 664 K, NMI 1576 K, NMI 1712 K, NMI 1991 K, and NMI 2541 K. All strains were stored at −80 °C. Prior to testing, each bacterial strain was subcultured twice on tryptic soy agar TSA (bioMerieux) medium and yeast strains on Sabouraud dextrose agar (bioMerieux) for 24–48 h at 30 °C to ensure viability. The antimicrobial activity was evaluated as previously described[26] by the disc-diffusion method and the MIC determination assays according to the EUCAST (ref. [71] and [72]) and CLSI (ref. [53] and [73]) recommendations. Assessment of bactericidal (MBC) and fungicidal (MFC) activities was performed according to the CLSI recommendations.[54,74] The following reference agents were used: fluconazole (in the case of fungi), linezolid (for Gram-positive bacteria), and nitrofurantoin (for Gram-negative rods). The new benzosiloxaboroles were dissolved in DMSO (Sigma).

Assay [8] relates to E. coli ATCC 25922. The experiment in a line: Antibacterial activity: MIC/MBC, MIC with PAβN, disc-diffusion. Format: cell-based, Escherichia coli. The note with it: E. coli ATCC 25922; for MIC: Escherichia coli, ATCC25922, read-out: MIC; for -fold reduction of MIC in the presence of PAβN: PAβN 20 μg mL^−1, MHB + 1 mM MgSO4. How it is done: as §1, §2
Assay [9] deals with S. aureus ATCC 6538P. Put plainly: Antibacterial activity: MIC/MBC determination and disc-diffusion. The note with it: S. aureus ATCC 6538P; for diameter of inhibition zone: disc-diffusion, — = zone not observed; for MBC / MIC: Staphylococcus aureus, ATCC6538P; for MIC: read-out: MIC. Format: cell-based, Staphylococcus aureus. How it is done:
as §3

For assay [10], the system named is P. aeruginosa ATCC 27853. Put plainly: Antibacterial activity: MIC/MBC, MIC with PAβN, disc-diffusion. To be noted: Pseudomonas aeruginosa, ATCC27853; P. aeruginosa ATCC 27853; read-out: MIC. Format: cell-based. On the procedure: as §1, §2
[11] abbreviates: read-out: MBC (first MBC where Eagle effect).
Setting [12] is: PAβN 20 μg mL^−1, MHB + 1 mM MgSO4.

On to `C[Si]1(C)OB(O)c2cc(F)c(S)c(F)c21` [Compound 1e, 5,7-Difluoro-6-mercapto-1,1-dimethylbenzo[c][1,2,5]oxasilaborol-3(1H)-ol], for which the MIC in assay [1], in assay [2], in assay [3], in assay [4], in [5] and in assay [6] was more than 400 µg/mL in each case. Moreover, the MIC (as a rule, the least concentration at which growth counts as inhibited) in [7] was 200 µg/mL (≈ 813 µM); in assay [8], more than 400 µg/mL; in assay [9] it was 12.5 µg/mL (≈ 50.8 µM); in [10], more than 400 µg/mL. In addition, in assay [9], the “diameter of inhibition zone” value came to 19 mm. Moreover, the MBC (usually the smallest concentration meeting the test's criterion for killing) in assay [9] (setting [11]) was found to be 25 µg/mL (≈ 102 µM).
`C[Si]1(C)OB(O)c2ccc(S)c(F)c21` [Compound 2e, 7-Fluoro-6-mercapto-1,1-dimethylbenzo[c][1,2,5]oxasilaborol-3(1H)-ol]: the MIC in assay [1], in assay [2], in assay [3], in assay [4], in assay [5] and in assay [6] was more than 100 µg/mL throughout. The MIC in [7] was more than 100 µg/mL; in [8], more than 100 µg/mL; in [9], 12.5 µg/mL (≈ 54.8 µM); in assay [10], more than 100 µg/mL. The “diameter of inhibition zone” value in assay [9] was found to be 20 mm. Further, in [9] (setting [11]), the MBC was found to be 25 µg/mL (≈ 110 µM).
Regarding `CC(=O)CCSc1c(F)cc2c(c1F)[Si](C)(C)OB2O` [Compound 3, 4-((5,7-Difluoro-3-hydroxy-1,1-dimethyl-1,3-dihydrobenzo[c][1,2,5]oxasilaborol-6-yl)thio)butan-2-one], the MIC was more than 400 µg/mL in assay [1]; 50 µg/mL (≈ 158 µM) in assay [2]; more than 400 µg/mL in assay [3]; 200 µg/mL (≈ 632 µM) in [4]; 400 µg/mL (≈ 1260 µM) in assay [5]; more than 400 µg/mL in [6]. For the same compound, the MIC in assay [7] is 400 µg/mL (≈ 1260 µM); in assay [8], more than 400 µg/mL; in assay [9], 50 µg/mL (≈ 158 µM); in assay [10] it was more than 400 µg/mL. The “diameter of inhibition zone” value in [9] turned out to be 23 mm. Moreover, the MBC in [9] (setting [11]) worked out at 100 µg/mL (≈ 316 µM).
As for `COC(=O)CCSc1ccc2c(c1F)[Si](C)(C)OB2O` [Compound 4, Methyl 3-((7-fluoro-3-hydroxy-1,1-dimethyl-1,3-dihydrobenzo[c][1,2,5]oxasilaborol-6-yl)thio)propanoate], the MIC in assay [1], in [2], in assay [3], in [4], in [5] and in assay [6] was more than 400 µg/mL in each case. Moreover, the MIC in assay [7] was more than 400 µg/mL; in [8], 400 µg/mL (≈ 1270 µM); in [9] it was 12.5 µg/mL (≈ 39.8 µM); in assay [10], more than 400 µg/mL. Moreover, the “-fold reduction of MIC in the presence of PAβN” value in assay [4] (setting [12]) is 2 -fold; in assay [5] (setting [12]) it was 2 -fold; in assay [6] (setting [12]) it was 2 -fold; in assay [8], 8 -fold. The “diameter of inhibition zone” value in [8] ((-) = zone not observed, paper discs 9 mm) is 15 mm; in assay [9], 27 mm. Besides, the MBC in assay [9] (setting [11]) is 25 µg/mL (≈ 79.6 µM); in assay [9] (value after the slash, read-out: second MBC (Eagle effect)) it was 400 µg/mL (≈ 1270 µM).
On to `C[Si]1(C)OB(O)c2cc(F)c(SCCC(=O)ON3C(=O)CCC3=O)c(F)c21` [Compound 5, 2,5-Dioxopyrrolidin-1-yl 3-((5,7-difluoro-3-hydroxy-1,1-dimethyl-1,3-dihydrobenzo-[c][1,2,5]oxasilaborol-6-yl)thio)propanoate], for which the MIC in assay [1], in assay [2], in assay [3], in assay [4], in assay [5] and in assay [6] was more than 400 µg/mL throughout. The MIC in [7] is more than 400 µg/mL; in assay [8] it was more than 400 µg/mL; in assay [9] it was 400 µg/mL (≈ 963 µM); in assay [10] it was more than 400 µg/mL. Further, the “diameter of inhibition zone” value in assay [9] was 15 mm.
As to `C[Si]1(C)OB(O)c2cc(F)c(S(=O)(=O)N3CCOCC3)c(F)c21` [Compound 29, 5,7-Difluoro-1,1-dimethyl-6-(morpholinosulfonyl)benzo[c][1,2,5]oxasilaborol-3(1H)-ol], the MIC in assay [1], in assay [2], in assay [3], in assay [4], in [5] and in [6] was more than 400 µg/mL in each case. In addition, the results for the MIC in assay [8], in [9] and in assay [10] were more than 400 µg/mL, 200 µg/mL (≈ 551 µM) and more than 400 µg/mL, respectively. The “-fold reduction of MIC in the presence of PAβN” value in assay [8] was 2 -fold. In [9], the “diameter of inhibition zone” value was 16 mm. The MBC in assay [9] (setting [11]) came to 400 µg/mL (≈ 1100 µM).
